Results: article PMC6627331, “Identification of Small Molecule Inhibitors of Staphylococcus aureus RnpA” (Antibiotics, 2019)
pIC50: −log10 of the molar value. Values after ≈ are worked out from the molar mass of the structure shown. Read-outs that look alike come from different tables or passages of the source.

How the values were obtained:
[1] = target: T1, S. aureus RNase P (RnpA + rnpB) (Staphylococcus aureus, UniProt P0A0H5); assay: RnpA-dependent RNase P in vitro ptRNA^Tyr processing assay; assay type: biochemical; conditions: in vitro ptRNA^Tyr processing; for pIC50: read-out: Processing IC50; for IC50: SAR figures, read-out: pIC50 = processing IC50 (converted)
T1 construct: hexahistidine (His6) (N); made in house; host or cells: E. coli BL21 (DE3), plasmid pEXP5-nt
T1 sequence (P0A0H5 1-117): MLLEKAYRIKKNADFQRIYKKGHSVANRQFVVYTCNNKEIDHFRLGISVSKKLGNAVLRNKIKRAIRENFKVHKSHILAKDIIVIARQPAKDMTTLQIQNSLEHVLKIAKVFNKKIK
Protocol: S. aureus RNase P activity assays were performed according to conditions described previously. Briefly, ptRNA^Tyr and rnpB RNA species were first denatured by heating to 95 °C for 5 min then slow cooled to room temperature. RNase P was reconstituted by mixing an equal molar ratio of rnpB and RnpA for 15 min at 37 °C. Precursor tRNA processing inhibition reactions were performed by mixing 1.25 pmol of reconstituted RNase P (RnpA + rnpB) with an equal volume of 2× low salt buffer (50 mM Tris-HCl pH 8.0, 5 mM MgCl2) in the presence of DMSO (negative control) or the indicated compound (≤500 µM) and incubated for 5 min at 37 °C. 5 pmol ptRNA^Tyr was added and the mixture was incubated at 37 °C 15 min. Reactions were stopped by adding 2× RNA loading dye and heating at 65 °C for 10 min. Each sample was electrophoresed in a 7 M urea/8% polyacrylamide gel then stained with ethidium bromide. The Biorad EZ Gel Doc imaging system was used to visualize the RNA and relative abundance of the mature tRNA^Tyr band (% processing) in the negative control or in samples containing the indicated compounds and analyzed using Biorad Image Lab densitometry software. The inhibitory activity of the indicated compounds were calculated as a % inhibition using the following equation: […].
To assess IC50, % RNase P processing inhibition was plotted against compound concentration and a linear best fit equation was generated to calculate the IC50.

[2] = target: T2, S. aureus RnpA (Staphylococcus aureus, UniProt P0A0H5); assay: RnpA-mediated in vitro spa mRNA degradation assay; assay type: biochemical
T2 construct: hexahistidine (His6) (N); made in house; host or cells: E. coli BL21 (DE3), plasmid pEXP5-nt
T2 sequence (P0A0H5 1-117): T1 sequence (P0A0H5 1-117)
Protocol: RnpA-mediated RNA degradation assays were performed as previously described. Briefly, 1 pmol of spa mRNA was incubated with 5 pmol RnpA at 37 °C for 30 min in reaction buffer (50 mM Tris-HCl pH 8.0, 2 mM NaCl, 2 mM MgCl2) in the absence or presence of the indicated compound (≤500 µM). The inhibitory effects of the test compounds were calculated using Biorad ImageLab densitometry software to measure the signal intensity of the spa band in the negative control (spa alone), positive control (RnpA + spa + DMSO), and experimental samples (RnpA + spa + test compound) separated on a 1.2% formaldehyde-agarose gel. Background signal from the positive control sample sometimes resulted due to incomplete degradation of transcripts. Thus, the signal intensity of the positive control was taken into account when calculating the percent inhibition. The raw signals from the positive (+RnpA) and negative (-RnpA) controls were converted into percentage, by normalizing the positive control (+RnpA) signal to 0% RnpA inhibition and the negative control (-RnpA) to 100% RnpA inhibition. Similarly, the raw signals from the test compounds were reported as percent RnpA inhibition using the following equation: [(experimental−positive control)/(negative control−positive control)] × 100. […] To assess IC50, % RnpA degradation inhibition was plotted against compound concentration; a linear best fit equation was generated and utilized to calculate the IC50.

[3] = system: S. aureus UAMS-1; assay: Minimum inhibitory concentration (MIC) testing; assay type: cell-based, Staphylococcus aureus
Protocol: Minimum inhibitory concentration (MIC) testing was performed using to Clinical & Laboratory Standards Institute (CLSI) guidelines. Accordingly, individual wells of a 96-well microtiter plate were inoculated with 10^4 colony forming units (CFU) of S. aureus UAMS-1 containing two-fold increasing concentrations (0 to 256 μg·mL^−1) of the indicated antibiotic or putative RnpA inhibitor compound, and incubated at 37 °C for 16 h in MHB. The MIC was defined as the lowest concentration of compound in which there was no visible bacterial growth in the well.

[4] = system: HepG2 cells; assay: MTT human cell cytotoxicity testing; assay type: cell-based; conditions: SAR figures; 4× MIC exposure for 24 h
Protocol: Human HepG2 hepatocytes were seeded in individual wells of a 96-well cell-culture treated microtiter plate at a concentration of 1 × 10^5 cells per well and incubated in Dulbecco’s Modified Eagle Medium (DMEM) supplemented with 10% fetal bovine serum at 37 °C with 5% carbon dioxide overnight. Cells were then treated with DMSO (negative control) or the indicated agent for 24 h. MTT Cell Proliferation Assay Kits were used to assess viability according to the manufacturer’s recommendations (American Type Culture Collection; Manassas, VA, USA).

[5] = system: norA mRNA in S. aureus UAMS-1 cells; assay: Cellular norA mRNA turnover (qRT-PCR after rifampin arrest); assay type: cell-based, Staphylococcus aureus; conditions: 0.5× MIC for 30 min, 5 min post-transcriptional arrest; for norA mRNA degradation: mock 99%
Protocol: S. aureus mRNA half-life determinations were performed as previously described. […] Rifampin (Sigma-Aldrich) was added to the culture at a final concentration of 200 μg·mL^−1 to inhibit de novo transcript synthesis. Half of the culture was immediately removed and combined with an equal volume of ice cold acetone:ethanol (1:1 v/v). The remaining culture was returned to the shaking 37 °C incubator for an additional 5 min and then subsequently combined with an equal volume of ice cold acetone:ethanol (1:1 v/v) and stored at −80 °C until processing, as described below.
For total bacterial RNA isolation, cell suspensions were thawed on ice, centrifuged at 3000 rpm for 10 min at 4 °C, the resulting cell pellets were resuspended in ice-cold TE buffer (10 mM Tris-HCl, pH 8.0, 1 mM EDTA), and transferred into a FastPrep bead beater tube containing 0.1 mm silica spheres (MP Biomedicals; Santa Ana, CA, USA). Mixtures were homogenized at 5 m·s^−1 for 20 s, rested on ice for 5 min, and then homogenized again at 4.5 m·s^−1 in a FastPrep-24 instrument. Cellular debris were collected by centrifugation at 13,000 rpm for 15 min at 4 °C, whereas bacterial RNA was isolated from the supernatant using Qiagen RNeasy Mini Kits and miRNeasy Mini Kits were used to isolate total bacterial RNA, following the manufacturer’s instructions. RNA quantity and quality were measured using a NanoDrop 2000 spectrophotometer (ThermoFisher Scientific). For qRT-PCR, 1 μg of total bacterial RNA was treated with 3 units of DNase I (Ambion; Carlsbad, CA, USA) for 1 h at 37 °C to remove any DNA contaminants. RNA cleanup was performed using the Qiagen RNeasy Mini Kit. Subsequently, the BioRad iScript cDNA Synthesis Kit (Hercules, CA, USA) was used to convert 200 ng of RNA into cDNA, which was amplified using the BioRad iQ SYBR Green Supermix per the manufacturer’s instructions and fluorescence was read on the Biorad CFX 96 Connect machine. Transcript levels were compared to the internal control 16S rRNA (ΔΔCt method), and plotted as a fold change compared to control. The following primer pairs were used in this study for qRT-PCR: norA forward—[…] and norA reverse-[…] CTAAG; -15 ptRNA^Tyr forward-[…] and tRNA^Tyr reverse-TGGTG […]; 16S rRNA forward-[…] and 16S rRNA reverse-[…].

[6] = system: ptRNA^Tyr levels in S. aureus UAMS-1 cells; assay: Cellular ptRNA^Tyr accumulation (qRT-PCR); assay type: cell-based, Staphylococcus aureus; conditions: 1× MIC; 30 min or 1 h
Protocol: ptRNA^Tyr cellular pools were measured, as previously described. […] The culture was immediately removed, combined with an equal volume of ice cold acetone:ethanol (1:1 v/v) and stored at −80 °C until processing, as described below.
For total bacterial RNA isolation, cell suspensions were thawed on ice, centrifuged at 3000 rpm for 10 min at 4 °C, the resulting cell pellets were resuspended in ice-cold TE buffer (10 mM Tris-HCl, pH 8.0, 1 mM EDTA), and transferred into a FastPrep bead beater tube containing 0.1 mm silica spheres (MP Biomedicals; Santa Ana, CA, USA). Mixtures were homogenized at 5 m·s^−1 for 20 s, rested on ice for 5 min, and then homogenized again at 4.5 m·s^−1 in a FastPrep-24 instrument. Cellular debris were collected by centrifugation at 13,000 rpm for 15 min at 4 °C, whereas bacterial RNA was isolated from the supernatant using Qiagen RNeasy Mini Kits and miRNeasy Mini Kits were used to isolate total bacterial RNA, following the manufacturer’s instructions. RNA quantity and quality were measured using a NanoDrop 2000 spectrophotometer (ThermoFisher Scientific). […] Subsequently, the BioRad iScript cDNA Synthesis Kit (Hercules, CA, USA) was used to convert 200 ng of RNA into cDNA, which was amplified using the BioRad iQ SYBR Green Supermix per the manufacturer’s instructions and fluorescence was read on the Biorad CFX 96 Connect machine. […]

[7] = system: S. aureus RN4220 pML100::rnpA-KD; assay: Cellular RnpA depletion hypersusceptibility growth curve; assay type: cell-based, Staphylococcus aureus; conditions: […] MIC JC2 or 0.5× MIC RNPA2000
Protocol: 100 μL of each culture was transferred to a 96 well flat bottom plate in duplicate and growth monitored by OD600 reading every 30 min over 8 h at 37 °C. Hypersusceptibility growth curves were averaged from two biological replicates in technical duplicate.

[8] = system: S. aureus UAMS-1; assay: Galleria mellonella model of S. aureus infection; assay type: in vivo; conditions: 10^4 CFU UAMS-1, single dose 100 mg·kg^−1 1 h post-infection, 16 h; DMSO 60%
Protocol: (§1) An overnight culture of S. aureus strain UAMS-1 was used to inoculate (1:100 dilution) 25 mL of fresh MH medium and growth at 37 °C on a rotary shaker at 225 rpm to exponential phase (~1 × 10^8 CFU mL^−1). Cultures were pelleted by centrifugation, washed with phosphate buffered saline (PBS), and re-suspended at ~1 × 10^7 CFU·mL^−1 in fresh PBS. G. mellonella larvae weighing 150–250 mg were inoculated with 5 µL of S. aureus into the last left proleg using a 10 µL Hamilton syringe. About 1 h after inoculation, one group of worms was treated with 2 µL DMSO as infected negative control; one group was treated with 2 µL JC2 compound at 100 mg/kg dose; another group was treated with 2 µL vancomycin at 100 mg/kg dose as standard-of-care comparison. Treatments were administered in the same manner as infection, except that each injection was in the next left proleg moving towards the head of the worm. […] In addition to the mock or compound treatment of infected larvae, a group of non-infected worm injected with DMSO or corresponding compounds were used to monitor the impact of physical trauma as well as observe toxicity associated with compound treatment.

[9] = system: Galleria mellonella; assay: Galleria mellonella single tolerated dose (uninfected worms); assay type: in vivo; conditions: single dose 100 mg·kg^−1, 16 h
Protocol: as §1

[10] = Staphylococcus aureus, UAMS1, 16 h, Table S1, mupirocin synergy screening initial hits, read-out: MIC
[11] = Staphylococcus aureus, UAMS1, SAR figures, S. aureus UAMS-1, read-out: MIC

| SMILES | pIC50 [1] | pIC50 ([2]; read-out: Degradation IC50) | MIC [3, 10] [µg/mL] | MIC [3, 11] [µg/mL] | MTT = % HepG2 cell survival [4] [%] | norA mRNA degradation [5] | IC50 [1] [µM] | further results |
| --- | --- | --- | --- | --- | --- | --- | --- | --- |
| CC1CCN(C(=O)Nc2cc(Cl)cc(Cl)c2)CC1 [JC1] | 3.68 | 3.96 | 1 | 1 (≈ 3.48 µM) | 63 | did not reduce cellular norA mRNA degradation | – | MIC ([3]; S. aureus UAMS-1, 16 h in MHB, listed as 9044791): 1 µg/mL (≈ 3.48 µM) |
| CCC1CCCCN1C(=O)Nc1cc(Cl)cc(Cl)c1 (stereo not drawn) [JC3] | 3.76 | 3.30 | 1 | 1 (≈ 3.32 µM) | 57.9 | did not reduce cellular norA mRNA degradation | – | effect on RnpA mRNA degradation activity (in words) [2]: no appreciable effect; MIC ([3]; S. aureus UAMS-1, 16 h in MHB, listed as 9044688): 1 µg/mL (≈ 3.32 µM) |
| CCC1CCCCN1C(=O)Nc1cccc(Cl)c1 (stereo not drawn) [JC3b] | ≥ 3.30 | ≥ 3.30 | – | 32 (≈ 120 µM) | 82.8 | did not reduce cellular norA mRNA degradation | 500 | pIC50 ([2]; SAR figures, read-out: dIC50 = degradation IC50): 3.46 |
| COc1ccc(NC(=O)c2c(NC(=O)C(F)(F)F)sc3c2CCCCC3)cc1 [JR6] | – | < 3.60 | – | 1 (≈ 2.42 µM) | 53.3 | – | 22 | MIC ([3]; Staphylococcus aureus, UAMS1, 16 h, S. aureus UAMS-1, 16 h in MHB, read-out: MIC): 0.25 to 1 µg/mL (≈ 0.606 to 2.42 µM) |
| CC(C)c1ccc(OCC(=O)NNC(=S)NC(=O)c2ccco2)cc1 [RNPA2000, reference compound] | – | – | – | – | – | – | – | MIC ([3]; S. aureus UAMS-1, 16 h in MHB): 16 µg/mL (≈ 44.3 µM); cellular accumulation of precursor tRNA^Tyr in comparison to mock treated cells [6]: 2.31 fold; reduction of cellular norA mRNA degradation [5]: approximately 54%; growth of RnpA-depleted cells (RnpA-KD) versus vector cells [7]: hypersusceptibility |
| CN[C@H](CC(C)C)C(=O)N[C@H]1C(=O)N[C@@H](CC(N)=O)C(=O)N[C@H]2C(=O)N[C@H]3C(=O)N[C@H](C(=O)N[C@H](C(=O)O)c4cc(O)cc(O)c4-c4cc3ccc4O)[C@H](O)c3ccc(c(Cl)c3)Oc3cc2cc(c3O[C@@H]2O[C@H](CO)[C@@H](O)[C@H](O)[C@H]2O[C@H]2C[C@](C)(N)[C@H](O)[C@H](C)O2)Oc2ccc(cc2Cl)[C@H]1O [vancomycin, reference compound] | – | – | – | – | – | – | – | mortality rate of S. aureus infected worms [8]: 40%; mortality rate of uninfected worms [9]: 10% |
